Measurements: patent US8815875B2 (Merck Sharp & Dohme Corp., priority 2008, dated 2014)

Biological target: FABP4 (Homo sapiens, UniProt P15090)
Assay: TdF (Temperature Dependence Fluorescence) assay, thermal shift, FABP4
Type: binding
In short: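 Binding measured as ΔTm versus protein alone; binding constants derived by nonlinear fitting with ΔHL set to −7 kcal/mol and ΔCpL to zero.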

Chain of FABP4 (P15090 whole entry, species assumed): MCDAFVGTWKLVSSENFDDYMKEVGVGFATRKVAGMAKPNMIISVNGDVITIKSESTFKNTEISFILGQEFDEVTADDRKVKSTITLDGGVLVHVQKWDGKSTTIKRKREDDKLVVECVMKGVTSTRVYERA

SMILES | Kd | FABP4 TdF Kd
O=C(c1c(Cl)cccc1OCc1cc(=O)n2nc(-c3ccccc3)nc2[nH]1)N1CCS(=O)(=O)CC1 [47-6, 4-[2-chloro-6-[(4,7-dihydro-7-oxo-2-phenyl[1,2,4]triazolo[1,5-a]pyrimidin-5-yl)methoxy]benzoyl]thiomorpholine, 1,1-dioxide] | > 500 nM | –
Cc1cc(NC(=O)c2c(Cl)cccc2OCc2cc(=O)n3nc(-c4ccccc4)nc3[nH]2)n(C)n1 [47-7, 2-chloro-N-(1,3-dimethyl-1H-pyrazol-5-yl)-6-((7-oxo-2-phenyl-4,7-dihydro-[1,2,4]triazolo[1,5-a]pyrimidin-5-yl)methoxy)benzamide] | – | B (0.5 ≦ B < 0.001 μM)
Cc1cc(NC(=O)c2c(Cl)cccc2OCc2cc(=O)n3nc(-c4ccccc4)nc3[nH]2)no1 [47-8, 2-chloro-N-(5-methylisoxazol-3-yl)-6-((7-oxo-2-phenyl-4,7-dihydro-[1,2,4]triazolo[1,5-a]pyrimidin-5-yl)methoxy)benzamide] | – | B (0.5 ≦ B < 0.001 μM)
COC[C@@H]1CCCN1C(=O)c1c(Cl)cccc1OCc1cc(=O)n2nc(-c3ccccc3)nc2[nH]1 [47-9, (S)-5-((3-chloro-2-(2-(methoxymethyl)pyrrolidine-1-carbonyl)phenoxy)methyl)-2-phenyl-[1,2,4]triazolo[1,5-a]pyrimidin-7(4H)-one] | – | B (0.5 ≦ B < 0.001 μM)
COC[C@H]1CCCN1C(=O)c1c(Cl)cccc1OCc1cc(=O)n2nc(-c3ccccc3)nc2[nH]1 [47-10] | – | B (0.5 ≦ B < 0.001 μM)
Cn1nc(C2CC2)cc1NC(=O)c1c(Cl)cccc1OCc1cc(=O)n2nc(-c3ccccc3)nc2[nH]1 [47-11] | – | B (0.5 ≦ B < 0.001 μM)
O=C(NC1(CO)CC1)c1c(Cl)cccc1OCc1cc(=O)n2nc(-c3ccccc3)nc2[nH]1 [47-12, 2-chloro-N-(1-(hydroxymethyl)cyclopropyl)-6-((7-oxo-2-phenyl-4,7-dihydro-[1,2,4]triazolo[1,5-a]pyrimidin-5-yl)methoxy)benzamide] | – | B (0.5 ≦ B < 0.001 μM)
O=C(NCC1(O)CCCCC1)c1c(Cl)cccc1OCc1cc(=O)n2nc(-c3ccccc3)nc2[nH]1 [47-13, 2-chloro-N-((1-hydroxycyclohexyl)methyl)-6-((7-oxo-2-phenyl-4,7-dihydro-[1,2,4]triazolo[1,5-a]pyrimidin-5-yl)methoxy)benzamide] | – | B (0.5 ≦ B < 0.001 μM)
O=C(NC1(CO)CCCCC1)c1c(Cl)cccc1OCc1cc(=O)n2nc(-c3ccccc3)nc2[nH]1 [47-14] | – | B (0.5 ≦ B < 0.001 μM)
O=C(NCC1(O)CCCC1)c1c(Cl)cccc1OCc1cc(=O)n2nc(-c3ccccc3)nc2[nH]1 [47-15, 2-chloro-N-((1-hydroxycyclopentyl)methyl)-6-((7-oxo-2-phenyl-4,7-dihydro-[1,2,4]triazolo[1,5-a]pyrimidin-5-yl)methoxy)benzamide] | – | B (0.5 ≦ B < 0.001 μM)
O=C(NC1(CO)CCCC1)c1c(Cl)cccc1OCc1cc(=O)n2nc(-c3ccccc3)nc2[nH]1 [47-17, 2-chloro-N-(1-(hydroxymethyl)cyclopentyl)-6-((7-oxo-2-phenyl-4,7-dihydro-[1,2,4]triazolo[1,5-a]pyrimidin-5-yl)methoxy)benzamide] | – | B (0.5 ≦ B < 0.001 μM)
O=C(NCC1(CO)CC1)c1c(Cl)cccc1OCc1cc(=O)n2nc(-c3ccccc3)nc2[nH]1 [47-18, 2-chloro-N-((1-(hydroxymethyl)cyclopropyl)methyl)-6-((7-oxo-2-phenyl-4,7-dihydro-[1,2,4]triazolo[1,5-a]pyrimidin-5-yl)methoxy)benzamide] | – | B (0.5 ≦ B < 0.001 μM)
COCC1(CNC(=O)c2c(Cl)cccc2OCc2cc(=O)n3nc(-c4ccccc4)nc3[nH]2)CC1 [47-19, 2-chloro-N-((1-(methoxymethyl)cyclopropyl)methyl)-6-((7-oxo-2-phenyl-4,7-dihydro-[1,2,4]triazolo[1,5-a]pyrimidin-5-yl)methoxy)benzamide] | – | B (0.5 ≦ B < 0.001 μM)
O=C(NCC1(CO)CCCC1)c1c(Cl)cccc1OCc1cc(=O)n2nc(-c3ccccc3)nc2[nH]1 [47-20, 2-chloro-N-((1-(hydroxymethyl)cyclopentyl)methyl)-6-((7-oxo-2-phenyl-4,7-dihydro-[1,2,4]triazolo[1,5-a]pyrimidin-5-yl)methoxy)benzamide] | – | B (0.5 ≦ B < 0.001 μM)
O=C(NC1(CO)CCOCC1)c1c(Cl)cccc1OCc1cc(=O)n2nc(-c3ccccc3)nc2[nH]1 [47-21, 2-chloro-N-(4-(hydroxymethyl)tetrahydro-2H-pyran-4-yl)-6-((7-oxo-2-phenyl-4,7-dihydro-[1,2,4]triazolo[1,5-a]pyrimidin-5-yl)methoxy)benzamide] | – | B (0.5 ≦ B < 0.001 μM)
CC(C)(CNC(=O)c1c(Cl)cccc1OCc1cc(=O)n2nc(-c3ccccc3)nc2[nH]1)N1CCOCC1 [47-22, 2-chloro-N-(2-methyl-2-morpholinopropyl)-6-((7-oxo-2-phenyl-4,7-dihydro-[1,2,4]triazolo[1,5-a]pyrimidin-5-yl)methoxy)benzamide] | – | B (0.5 ≦ B < 0.001 μM)
COc1ccccc1C1(CNC(=O)c2c(Cl)cccc2OCc2cc(=O)n3nc(-c4ccccc4)nc3[nH]2)CCC1 [47-23] | – | B (0.5 ≦ B < 0.001 μM)
O=C(NCC1(c2ccc(Cl)cc2)CCC1)c1c(Cl)cccc1OCc1cc(=O)n2nc(-c3ccccc3)nc2[nH]1 [47-24, 2-chloro-N-((1-(4-chlorophenyl)cyclobutyl)methyl)-6-((7-oxo-2-phenyl-4,7-dihydro-[1,2,4]triazolo[1,5-a]pyrimidin-5-yl)methoxy)benzamide] | ≤ 1 nM | –
O=C(NCC1(O)CCOCC1)c1c(Cl)cccc1OCc1cc(=O)n2nc(-c3ccccc3)nc2[nH]1 [47-25, 2-chloro-N-((4-hydroxytetrahydro-2H-pyran-4-yl)methyl)-6-((7-oxo-2-phenyl-4,7-dihydro-[1,2,4]triazolo[1,5-a]pyrimidin-5-yl)methoxy)benzamide] | – | B (0.5 ≦ B < 0.001 μM)
O=C(NCC1(CO)CCOCC1)c1c(Cl)cccc1OCc1cc(=O)n2nc(-c3ccccc3)nc2[nH]1 [47-26, 2-chloro-N-((4-(hydroxymethyl)tetrahydro-2H-pyran-4-yl)methyl)-6-((7-oxo-2-phenyl-4,7-dihydro-[1,2,4]triazolo[1,5-a]pyrimidin-5-yl)methoxy)benzamide] | – | B (0.5 ≦ B < 0.001 μM)
CC(C)(C)c1cc(NC(=O)c2c(Cl)cccc2OCc2cc(=O)n3nc(-c4ccccc4)nc3[nH]2)n(-c2ccc(Cl)cc2)n1 [47-27, N-(3-tert-butyl-1-(4-chlorophenyl)-1H-pyrazol-5-yl)-2-chloro-6-((7-oxo-2-phenyl-4,7-dihydro-[1,2,4]triazolo[1,5-a]pyrimidin-5-yl)methoxy)benzamide] | ≤ 1 nM | –
CC1(CNC(=O)c2c(Cl)cccc2OCc2cc(=O)n3nc(-c4ccccc4)nc3[nH]2)COC1 [47-28, 2-chloro-N-((3-methyloxetan-3-yl)methyl)-6-((7-oxo-2-phenyl-4,7-dihydro-[1,2,4]triazolo[1,5-a]pyrimidin-5-yl)methoxy)benzamide] | ≤ 1 nM | –
O=C(NCC1(c2ccccc2Cl)CC1)c1c(Cl)cccc1OCc1cc(=O)n2nc(-c3ccccc3)nc2[nH]1 [47-29, 2-chloro-N-((1-(2-chlorophenyl)cyclopropyl)methyl)-6-((7-oxo-2-phenyl-4,7-dihydro-[1,2,4]triazolo[1,5-a]pyrimidin-5-yl)methoxy)benzamide] | ≤ 1 nM | –
